Drawing on the supplement of paper PMC10307832, this text covers relative viability for twelve cell lines.

Common to all, as to test: relative viability (nuclei count vs DMSO), 5 days (fraction); higher = more cells survive
Compound in the assay “Axitinib + Alpelisib”: CNC(=O)c1ccccc1Sc1ccc2c(/C=C/c3ccccn3)n[nH]c2c1 [Axitinib] + Cc1nc(NC(=O)N2CCC[C@H]2C(N)=O)sc1-c1ccnc(C(C)(C)C(F)(F)F)c1 [Alpelisib] (partner 2 µM)
In outline:
(§1)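 Nuclei were stained with Hoechst during a one-step fixation (final 0.05% Triton X-100, 1% formaldehyde, 1 ug/ml Hoechst) carried out 5 days after dosing, then counted on 4× images. The cells, lung cancer lines in 1536-well plates, had been dosed by pin tool the day after seeding with one drug alone or a fixed anchor-drug dose plus five library-drug doses (not always all listed) in √10 steps. Relative viability is the nuclei count in treated wells divided by that in vehicle wells, and each value is the median of duplicate plates.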

Compound in assay [1]: CC1=CC=C(C=C1)C(=O)CN2C3=C(CCCC3)SC2=N [Pifithrin_alpha] + CS(=O)(=O)N1CCN(Cc2cc3nc(-c4cccc5[nH]ncc45)nc(N4CCOCC4)c3s2)CC1 [Pictilisib] (partner 1 µM)
In outline:
as §1

Compound in the assay “Bemcentinib + Phenformin”: Nc1nc(Nc2ccc3c(c2)CC[C@@H](N2CCCC2)CC3)nn1-c1cc2c(nn1)-c1ccccc1CCC2 [Bemcentinib] + N=C(N)NC(=N)NCCc1ccccc1 [Phenformin] (partner 250 µM)
In outline:
as §1

Compound in assay [2]: CC1=CC=C(C=C1)C(=O)CN2C3=C(CCCC3)SC2=N [Pifithrin_alpha] + CC(=O)Nc1cccc(-n2c(=O)n(C3CC3)c(=O)c3c(Nc4ccc(I)cc4F)n(C)c(=O)c(C)c32)c1 [Trametinib] (partner 0.02 µM)
In outline: as §1

For the cell line LOU-NH91, the relative viability came out at 0.772 with Axitinib + Alpelisib (first compound 0.005 µM); 0.512 with Axitinib + Alpelisib (first compound 0.01581 µM); 0.715 in the assay with Axitinib + Alpelisib (first compound 0.05 µM); 0.702 with Axitinib + Alpelisib (first compound 0.1581 µM); 0.778 with Axitinib + Alpelisib (first compound 0.5 µM); 0.473 in assay [1] (first compound 1 µM). The relative viability in assay [1] (first compound 3.162 µM) was 0.476; in assay [1] (first compound 10 µM), 0.444; in assay [1] (first compound 31.62 µM), 0.442; in assay [1] (first compound 100 µM) it was 0.371; with Bemcentinib + Phenformin (first compound 0.04 µM), 0.637; in the assay with Bemcentinib + Phenformin (first compound 0.1265 µM), 0.663. Also, the relative viability with Bemcentinib + Phenformin (first compound 0.4 µM) came to 0.73; with Bemcentinib + Phenformin (first compound 1.265 µM), 0.748; in the assay with Bemcentinib + Phenformin (first compound 4 µM) it was 0.673; in assay [2] (first compound 1 µM), 0.746; in assay [2] (first compound 3.162 µM), 0.72; in assay [2] (first compound 10 µM) it was 0.731. Besides, the relative viability in assay [2] (first compound 31.62 µM) amounted to 0.612; in assay [2] (first compound 100 µM), 0.568.

As for LU99A, the relative viability stood at 0.492 with Axitinib + Alpelisib (first compound 0.005 µM); 0.498 with Axitinib + Alpelisib (first compound 0.01581 µM); 0.533 with Axitinib + Alpelisib (first compound 0.05 µM); 0.515 in the assay with Axitinib + Alpelisib (first compound 0.1581 µM); 0.522 with Axitinib + Alpelisib (first compound 0.5 µM); 0.35 in assay [1] (first compound 1 µM). The relative viability in assay [1] (first compound 3.162 µM) is 0.311; in assay [1] (first compound 10 µM), 0.325; in assay [1] (first compound 100 µM), 0.305; in the assay with Bemcentinib + Phenformin (first compound 0.04 µM), 0.806; with Bemcentinib + Phenformin (first compound 0.1265 µM), 0.856; with Bemcentinib + Phenformin (first compound 0.4 µM), 0.835. The relative viability with Bemcentinib + Phenformin (first compound 1.265 µM) worked out at 0.801; in the assay with Bemcentinib + Phenformin (first compound 4 µM), 0.827; in assay [2] (first compound 1 µM), 0.458; in assay [2] (first compound 3.162 µM) it was 0.601; in assay [2] (first compound 10 µM), 0.573; in assay [2] (first compound 100 µM) it was 0.575.

In the case of LXF-289, the relative viability with Axitinib + Alpelisib (first compound 0.005 µM) was found to be 1.05; in the assay with Axitinib + Alpelisib (first compound 0.01581 µM), 0.961; with Axitinib + Alpelisib (first compound 0.05 µM), 1.03; with Axitinib + Alpelisib (first compound 0.1581 µM), 0.958; with Axitinib + Alpelisib (first compound 0.5 µM) it was 1.05; in assay [1] (first compound 1 µM), 0.818. Besides, the relative viability in assay [1] (first compound 3.162 µM) came to 0.694; in assay [1] (first compound 10 µM), 0.726; in assay [1] (first compound 31.62 µM), 0.498; in assay [1] (first compound 100 µM), 0.687; with Bemcentinib + Phenformin (first compound 0.04 µM), 0.523; with Bemcentinib + Phenformin (first compound 0.1265 µM), 0.533. The relative viability was determined as 0.534 with Bemcentinib + Phenformin (first compound 0.4 µM); 0.532 with Bemcentinib + Phenformin (first compound 1.265 µM); 0.54 in the assay with Bemcentinib + Phenformin (first compound 4 µM); 0.696 in assay [2] (first compound 1 µM); 0.731 in assay [2] (first compound 3.162 µM); 0.716 in assay [2] (first compound 10 µM). In addition, the relative viability is 0.587 in assay [2] (first compound 31.62 µM) and 0.718 in assay [2] (first compound 100 µM).

For the cell line NCI-H522, the relative viability came out at 0.598 in the assay with Bemcentinib + Phenformin (first compound 0.04 µM); 0.733 with Bemcentinib + Phenformin (first compound 0.1265 µM); 0.729 with Bemcentinib + Phenformin (first compound 0.4 µM); 0.722 with Bemcentinib + Phenformin (first compound 1.265 µM); 0.674 with Bemcentinib + Phenformin (first compound 4 µM); 0.61 in assay [2] (first compound 1 µM). Moreover, the relative viability in assay [2] (first compound 3.162 µM) was determined as 0.754; in assay [2] (first compound 10 µM) it was 0.743; in assay [2] (first compound 31.62 µM) it was 0.693; in assay [2] (first compound 100 µM), 0.618.

On to NCI-H1299, for which the relative viability with Axitinib + Alpelisib (first compound 0.005 µM) stood at 0.987; in the assay with Axitinib + Alpelisib (first compound 0.01581 µM), 1.01; with Axitinib + Alpelisib (first compound 0.05 µM), 1.06; with Axitinib + Alpelisib (first compound 0.1581 µM), 1.06; in the assay with Axitinib + Alpelisib (first compound 0.5 µM) it was 1.1; in assay [1] (first compound 1 µM) it was 0.797. The relative viability is 0.827 in assay [1] (first compound 3.162 µM), 0.919 in assay [1] (first compound 10 µM), 0.452 in assay [1] (first compound 31.62 µM) and 0.762 in assay [1] (first compound 100 µM).

As to NCI-H1563, the relative viability in the assay with Axitinib + Alpelisib (first compound 0.005 µM) worked out at 1.04; with Axitinib + Alpelisib (first compound 0.01581 µM) it was 0.916; with Axitinib + Alpelisib (first compound 0.05 µM), 0.951; in the assay with Axitinib + Alpelisib (first compound 0.1581 µM), 0.892; in the assay with Axitinib + Alpelisib (first compound 0.5 µM), 0.986; in assay [1] (first compound 1 µM) it was 0.53. Besides, the relative viability in assay [1] (first compound 3.162 µM) stood at 0.688; in assay [1] (first compound 10 µM), 0.61; in assay [1] (first compound 31.62 µM) it was 0.65; in assay [1] (first compound 100 µM) it was 0.705; with Bemcentinib + Phenformin (first compound 0.04 µM), 0.671; in the assay with Bemcentinib + Phenformin (first compound 0.1265 µM) it was 0.742. In addition, the relative viability with Bemcentinib + Phenformin (first compound 0.4 µM) was 0.671; with Bemcentinib + Phenformin (first compound 1.265 µM), 0.671; with Bemcentinib + Phenformin (first compound 4 µM), 0.618.

NCI-H1623: the relative viability turned out to be 0.607 with Bemcentinib + Phenformin (first compound 0.04 µM); 0.497 with Bemcentinib + Phenformin (first compound 0.1265 µM); 0.621 in the assay with Bemcentinib + Phenformin (first compound 0.4 µM); 0.641 in the assay with Bemcentinib + Phenformin (first compound 1.265 µM); 0.563 in the assay with Bemcentinib + Phenformin (first compound 4 µM).

Turning to NCI-H1648, the relative viability in assay [2] (first compound 1 µM) is 0.487; in assay [2] (first compound 3.162 µM), 0.332; in assay [2] (first compound 10 µM), 0.453; in assay [2] (first compound 31.62 µM), 0.48; in assay [2] (first compound 100 µM) it was 0.422.

On to NCI-H1650, for which the relative viability in assay [1] (first compound 1 µM) came out at 0.286; in assay [1] (first compound 3.162 µM), 0.44; in assay [1] (first compound 10 µM), 0.53; in assay [1] (first compound 31.62 µM), 0.353; in assay [1] (first compound 100 µM), 0.468; in the assay with Bemcentinib + Phenformin (first compound 0.04 µM), 0.368. The relative viability amounted to 0.477 with Bemcentinib + Phenformin (first compound 0.1265 µM); 0.583 in the assay with Bemcentinib + Phenformin (first compound 0.4 µM); 0.43 in the assay with Bemcentinib + Phenformin (first compound 1.265 µM); 0.394 with Bemcentinib + Phenformin (first compound 4 µM); 0.563 in assay [2] (first compound 1 µM); 0.523 in assay [2] (first compound 3.162 µM). In addition, the relative viability was found to be 0.451 in assay [2] (first compound 10 µM), 0.375 in assay [2] (first compound 31.62 µM) and 0.39 in assay [2] (first compound 100 µM).

For NCI-H1703, the relative viability is 0.264 with Axitinib + Alpelisib (first compound 0.005 µM); 0.214 with Axitinib + Alpelisib (first compound 0.01581 µM); 0.186 with Axitinib + Alpelisib (first compound 0.05 µM); 0.171 with Axitinib + Alpelisib (first compound 0.1581 µM); 0.243 with Axitinib + Alpelisib (first compound 0.5 µM); 0.25 in assay [1] (first compound 1 µM). In addition, the relative viability in assay [1] (first compound 3.162 µM) was 0.24; in assay [1] (first compound 10 µM) it was 0.261; in assay [1] (first compound 31.62 µM), 0.214; in assay [1] (first compound 100 µM), 0.251.

For NCI-H2342, the relative viability with Bemcentinib + Phenformin (first compound 0.04 µM) amounted to 0.564; with Bemcentinib + Phenformin (first compound 0.1265 µM), 0.581; in the assay with Bemcentinib + Phenformin (first compound 0.4 µM), 0.611; in the assay with Bemcentinib + Phenformin (first compound 1.265 µM) it was 0.617; with Bemcentinib + Phenformin (first compound 4 µM), 0.611; in assay [2] (first compound 1 µM) it was 0.856. In addition, the relative viability stood at 0.734 in assay [2] (first compound 3.162 µM), 0.811 in assay [2] (first compound 10 µM), 0.772 in assay [2] (first compound 31.62 µM) and 0.843 in assay [2] (first compound 100 µM).

As for SW 900, the relative viability worked out at 0.396 with Bemcentinib + Phenformin (first compound 0.04 µM); 0.588 with Bemcentinib + Phenformin (first compound 0.1265 µM); 0.557 with Bemcentinib + Phenformin (first compound 0.4 µM); 0.648 with Bemcentinib + Phenformin (first compound 1.265 µM); 0.458 with Bemcentinib + Phenformin (first compound 4 µM); 0.698 in assay [2] (first compound 1 µM). The relative viability in assay [2] (first compound 3.162 µM) is 0.801; in assay [2] (first compound 10 µM) it was 0.636; in assay [2] (first compound 31.62 µM), 0.57; in assay [2] (first compound 100 µM), 0.723.
